Test results reported in ChEMBL document CHEMBL1667816, “Preparation and in vitro screening of symmetrical bis-isoquinolinium cholinesterase inhibitors bearing various connecting linkage--implications for early Myasthenia gravis treatment” (Eur J Med Chem, 2011).
pIC50, pKi: −log10 of the molar value.

Tests used:
Acetylcholinesterase [1] = molecular target: T1, Acetylcholinesterase (Homo sapiens, UniProt P22303); assay: Inhibition of human recombinant AChE by Lineweaver-Burk plot analysis
Cholinesterase = Cholinesterase (Homo sapiens, UniProt P06276); assay: Inhibition of human plasmatic BChE by Lineweaver-Burk plot analysis; assay type: cell-free, Plasma
Acetylcholinesterase [2] = molecular target: T1, Acetylcholinesterase
Description: Dissociation constant for enzyme-inhibitor complex of human recombinant AChE by Lineweaver-Burk plot analysis

Acetylcholinesterase [3] = molecular target: T1, Acetylcholinesterase; remark: listed apart in the source
Description: Dissociation constant for enzyme-inhibitor-substrate complex of human recombinant AChE by Lineweaver-Burk plot analysis

T1 sequence (P22303 whole entry): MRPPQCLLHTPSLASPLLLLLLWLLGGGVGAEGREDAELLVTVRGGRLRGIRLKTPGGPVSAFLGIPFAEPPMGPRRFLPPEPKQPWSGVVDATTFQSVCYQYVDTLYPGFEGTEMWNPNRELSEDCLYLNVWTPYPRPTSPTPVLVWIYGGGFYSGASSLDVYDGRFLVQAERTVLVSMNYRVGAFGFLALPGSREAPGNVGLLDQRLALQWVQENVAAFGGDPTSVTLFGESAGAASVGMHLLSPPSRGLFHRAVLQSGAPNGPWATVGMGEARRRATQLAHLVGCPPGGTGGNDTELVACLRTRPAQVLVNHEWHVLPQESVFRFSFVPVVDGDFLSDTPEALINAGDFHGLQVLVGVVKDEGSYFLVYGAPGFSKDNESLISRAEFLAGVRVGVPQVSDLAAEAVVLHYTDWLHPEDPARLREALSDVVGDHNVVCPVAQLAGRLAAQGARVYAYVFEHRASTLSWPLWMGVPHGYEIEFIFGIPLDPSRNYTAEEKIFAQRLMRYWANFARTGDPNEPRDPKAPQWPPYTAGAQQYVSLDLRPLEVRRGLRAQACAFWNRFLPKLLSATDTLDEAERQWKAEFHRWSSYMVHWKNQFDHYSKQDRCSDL
Sequence of Cholinesterase (P06276 whole entry): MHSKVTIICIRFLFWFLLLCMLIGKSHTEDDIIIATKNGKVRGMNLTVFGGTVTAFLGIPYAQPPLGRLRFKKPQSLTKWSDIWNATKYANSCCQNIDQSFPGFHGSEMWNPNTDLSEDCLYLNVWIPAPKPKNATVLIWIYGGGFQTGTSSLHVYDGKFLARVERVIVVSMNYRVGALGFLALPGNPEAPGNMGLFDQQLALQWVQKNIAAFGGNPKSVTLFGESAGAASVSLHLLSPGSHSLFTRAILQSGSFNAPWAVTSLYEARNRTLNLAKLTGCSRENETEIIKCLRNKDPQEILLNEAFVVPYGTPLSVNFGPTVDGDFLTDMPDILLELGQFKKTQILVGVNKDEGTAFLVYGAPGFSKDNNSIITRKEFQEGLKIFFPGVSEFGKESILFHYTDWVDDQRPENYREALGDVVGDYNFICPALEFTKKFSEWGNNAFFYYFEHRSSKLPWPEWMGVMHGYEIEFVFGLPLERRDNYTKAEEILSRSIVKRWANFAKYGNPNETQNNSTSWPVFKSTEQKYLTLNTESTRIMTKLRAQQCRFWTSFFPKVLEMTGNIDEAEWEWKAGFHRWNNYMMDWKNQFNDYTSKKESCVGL

Structure (SMILES)	pIC50 (Acetylcholinesterase [1])	pIC50 (Cholinesterase)	pKi (Acetylcholinesterase [2])	pKi (Acetylcholinesterase [3])
C(=C\C[n+]1ccc2ccccc2c1)/C[n+]1ccc2ccccc2c1	5.15	4.19	–	–
c1ccc2c[n+](C[n+]3ccc4ccccc4c3)ccc2c1	3.18	2.85	–	–
C(=C/C[n+]1ccc2ccccc2c1)/C[n+]1ccc2ccccc2c1	4.77	4.60	–	–
c1ccc2c[n+](CCCCCCCCC[n+]3ccc4ccccc4c3)ccc2c1	7.40	6.22	–	–
c1ccc2c[n+](CCCCCCCCCCC[n+]3ccc4ccccc4c3)ccc2c1	7.00	5.05	–	–
c1ccc2c[n+](CCC[n+]3ccc4ccccc4c3)ccc2c1	3.35	2.59	–	–
c1ccc2c[n+](CCCCCCC[n+]3ccc4ccccc4c3)ccc2c1	6.30	5.52	–	–
c1ccc2c[n+](Cc3ccc(C[n+]4ccc5ccccc5c4)cc3)ccc2c1	4.92	3.08	–	–
C[N+](C)(CCNC(=O)C(=O)NCC[N+](C)(C)Cc1ccccc1Cl)Cc1ccccc1Cl [AMBENONIUM DICHLORIDE]	–	5.17	–	–
c1ccc2c[n+](CCCCC[n+]3ccc4ccccc4c3)ccc2c1	4.89	6.15	–	–
c1ccc2c[n+](CCCCCCCCCC[n+]3ccc4ccccc4c3)ccc2c1	7.30	5.80	–	–
c1ccc(C[n+]2ccc3ccccc3c2)c(C[n+]2ccc3ccccc3c2)c1	3.60	6.22	–	–
c1ccc2c[n+](COC[n+]3ccc4ccccc4c3)ccc2c1	5.70	3.81	–	–
c1cc(C[n+]2ccc3ccccc3c2)cc(C[n+]2ccc3ccccc3c2)c1	5.10	6.00	–	–
c1ccc2c[n+](CCCCCC[n+]3ccc4ccccc4c3)ccc2c1	6.52	5.70	–	–
c1ccc2c[n+](CCCCCCCCCCCC[n+]3ccc4ccccc4c3)ccc2c1	3.86	7.00	–	–
c1ccc2c[n+](Cc3ccc4ccc(C[n+]5ccc6ccccc6c5)cc4c3)ccc2c1	6.52	5.40	5.90	6.12
CC[N+](C)(C)c1cccc(O)c1 [EDROPHONIUM CHLORIDE]	–	2.86	–	–
c1ccc2c[n+](CCCC[n+]3ccc4ccccc4c3)ccc2c1	4.44	4.40	–	–
c1ccc2c[n+](CCOCC[n+]3ccc4ccccc4c3)ccc2c1	2.88	4.29	–	–
